Earlier results in patent US20260306413A1, “COLONIC PURGATIVE TABLET AND COLONIC PURGATIVE COMPRISING SAME” (PHARMBIO KOREA CO., LTD., priority 2023, published 2026).

| complications (oral) | Compound | colon cleansing effect (compared to PEG) | side effects (frequency vs PEG) |
| --- | --- | --- | --- |
| acute phosphate nephropathy | O=P(O)(O)O [oral sodium phosphate, sodium phosphate] | – | – |
| – | Phosphate | colon cleansing effect in smaller doses compared to PEG | side effects such as abdominal inflation, pain, and dizziness at a similar frequency to PEG |
